Patent publication US20130190285A1, “METHOD OF TREATING PANCREATIC CANCER” (Niiki Pharma Inc., priority 2009, published 2013)
pIC50: −log10 of the molar value.

Key:
[1] = test system: SW480; conditions: colon cancer cell line SW480; cited from earlier work
[2] = test system: HT29; conditions: colon cancer cell line HT29; cited from earlier work
[3] = test system: pancreatic cancer; conditions: cited from earlier work
[4] = test system: PANC-1 cells; conditions: cited from earlier work
[5] = test system: pancreatic tumor cell line MIA PaCa2; assay: MTT assay in 3-dimentional tumor model (HuBiogel); format: cell-based; conditions: MIA PaCa2 3-D tumor beads
Procedure: (§1) The compound sodium trans-[tetrachlorobis(1H-indazole)ruthenate(III)] was tested in a 3-dimentional tumor model derived from pancreatic tumor cell line MIA PaCa2. Specifically, cells were trypsinized, washed, counted by trypan blue exclusion. Tumor beads were then prepared by mixing 20,000 cells/10 μl of HuBiogel (4 mg/mL) (See U.S. patent application Ser. No. 10/546,506, which is incorporated herein by reference). The 3-D tumor beads were cultivated for 72 hours in multi-well plates with complete media (10% FBS) in a 37° C. incubator+5% CO2. Mini-tumors were treated with various concentrations of the test compound sodium trans-[tetrachlorobis(1H-indazole)ruthenate(III)] in media (final 0.2-0.3% DMSO) or control (DMSO). Repeated drug treatment was done by removing the culture media and replacing with fresh media with drug compound or DMSO. On Day 3, MTT assay and live-cell staining with Calcein AM were performed (5 beads/assay set).
(§2) Statistical analysis of data sets (Average, T-test, GI-50) was performed using MS-Excel program.

[6] = test system: pancreatic tumor cell line MIA PaCa2; assay: live-cell staining with Calcein AM in 3-dimentional tumor model (HuBiogel); format: cell-based; conditions: MIA PaCa2 3-D tumor beads, Day 3
Procedure: as §1, §2

[7] = test system: Capan-1; conditions: Capan-1, 72 hours post-treatment, MTT
Procedure: (§3) To test the activities of sodium trans-[tetrachlorobis(1H-indazole)ruthenate(III)], ATCC's MTT Cell Proliferation Assay® was performed using human pancreatic cancer cell lines PANC-1 and Capan-1. Stock cultures were allowed to grow to 70-80% confluence for this study. The anti-proliferative activity of sodium trans-[tetrachlorobis(1H-indazole)ruthenate(III)], against the indicated cell lines was evaluated in vitro using the ATCC's MTT Cell Proliferation Assay (Catalog No. 30-1010K). PANC-1 cells were grown in DMEM medium with 10% FBS and 1% pen/strep/glutamine. Capan-1 cells were grown using IMDM medium 20% FBS and 1% of pen/strep/glutamine. Panc 1 and Capan-1 cell plates were seeded with 6000 cells/well and 15,000 cells/well, respectively, and treated with sodium trans-[tetrachlorobis(1H-indazole)ruthenate(III)] at 1,000 μM, or a series of 4× dilutions thereof (250 μM, 62.5 μM, etc.). 100 μl of medium was removed from each well at 72 hours post-treatment and MTT reagent was added to each well. The plates were incubated plate at 37° C. for 4 hours and then 100 μl of detergent was added. The plates were left overnight at room temperature in the dark and was read on a plate reader using SoftMax® Pro (version 5.2, Molecular Devices).
(§4) The absorbance data was analyzed as follows: Absorbance values were converted to Percent of Control and plotted against test agent concentrations for IC50 calculations using SoftMax® Pro (version 5.2, Molecular Devices). The plate blank signal average was subtracted from all wells prior to calculating the Percent of Control. Percent of Control values were calculated by dividing the absorbance values for each test well by the No Drug Control average (column 11 values; cells+vehicle control) and multiplying by 100. Plots of Compound Concentration versus Percent of Control were analyzed using the 4-parameter equation to obtain IC50 values and other parameters that describe the sigmoidal dose response curve.
(§5) The IC50 value for the test agents was estimated by curve-fitting the data using the following four parameter-logistic equation: […]

[8] = test system: PANC-1
Procedure: as §3, §4, §5

SMILES: [Cl-].[Cl-].[Cl-].[Cl-].[Ru+3].c1ccc2[nH][nH+]cc2c1.c1ccc2[nH]ncc2c1.c1ccc2[nH]ncc2c1 [Indazolium trans-[tetrachlorobis(1H-indazole)ruthenate(III)], reference compound]
- killing tumor cells [1]: effective in killing tumor cells
- killing tumor cells [2]: effective in killing tumor cells

SMILES: C#Cc1cccc(Nc2ncnc3cc(OCCOC)c(OCCOC)cc23)c1 [erlotinib]
- median overall survival benefit ([3]; erlotinib in combination with gemcitabine, advanced-stage pancreatic cancer patients): less than four weeks
- sensitivity of PANC-1 cells to the drug [4]: resistant

SMILES: Nc1ccn([C@@H]2O[C@H](CO)[C@@H](O)C2(F)F)c(=O)n1 [gemcitabine]
- efficacy in pancreatic cancer ([3]; weekly intravenous administration): effective
- sensitivity of PANC-1 cells to the drug [4]: resistant

SMILES: [Cl][Ru-]([Cl])([Cl])[Cl].[Na+].c1ccc2[nH]ncc2c1.c1ccc2[nH]ncc2c1 [sodium trans-[tetrachlorobis(1H-indazole)ruthenate(III)]]
- killing tumor cells [1]: effective in killing tumor cells
- tumor proliferation activity (MTT) ([5]; Day 3, FIG. 1): significantly inhibited tumor proliferation activity
- GI50 ([5]; MTT assay on Day 3, read-out: average GI-50 (the drug concentration required for growth inhibition at 50%)): 35.7 µM
- killing tumor cells [2]: effective in killing tumor cells
- tumor killing in live-cell staining/image analysis [6]: dose-dependent tumor killing effective
- pIC50 [7]: 4.34
- pIC50 ([8]; PANC-1, 72 hours post-treatment, MTT): 4.51
- activity in cells resistant to gemcitabine and erlotinib ([8]; PANC-1 cells): active
